Measured values from PubChem BioAssay (NCI).
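Growth conditions: 96-well plates. Treatment: test compound, 48 hours, 5 concentrations. Analysis: linear interpolation between bracketing concentrations; unreached endpoints set to highest concentration. Here, GI50 denotes the concentration required for 50% inhibition of growth. TGI marks complete inhibition of growth.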

Columns and labels:
Experiment in all cases: growth of human tumour cells (NCI), 48 h
HS 578T breast = test system: HS 578T breast
KM12 colon = test system: KM12 colon
MOLT-4 leukemia = test system: MOLT-4 leukemia
HCT-15 colon = test system: HCT-15 colon
SK-MEL-5 melanoma = test system: SK-MEL-5 melanoma
HL-60(TB) leukemia = test system: HL-60(TB) leukemia
OVCAR-4 ovarian = test system: OVCAR-4 ovarian
SF-268 CNS = test system: SF-268 CNS
DU-145 prostate = test system: DU-145 prostate
SK-MEL-2 melanoma = test system: SK-MEL-2 melanoma

Row | Structure (SMILES) | GI50 (HS 578T breast) [µM] | TGI (HS 578T breast) [µM] | GI50 (KM12 colon) [µM] | TGI (KM12 colon) [µM] | GI50 (MOLT-4 leukemia) [µM] | TGI (MOLT-4 leukemia) [µM] | GI50 (HCT-15 colon) [µM] | TGI (HCT-15 colon) [µM] | GI50 (SK-MEL-5 melanoma) [µM] | TGI (SK-MEL-5 melanoma) [µM] | GI50 (HL-60(TB) leukemia) [µM] | TGI (HL-60(TB) leukemia) [µM] | GI50 (OVCAR-4 ovarian) [µM] | TGI (OVCAR-4 ovarian) [µM] | GI50 (SF-268 CNS) [µM] | TGI (SF-268 CNS) [µM] | GI50 (DU-145 prostate) [µM] | TGI (DU-145 prostate) [µM] | TGI (SK-MEL-2 melanoma) [µM] | GI50 (SK-MEL-2 melanoma) [µM]
1 | O=C(Nc1ccc(-c2nc3cc4ccccc4cc3[nH]2)cc1)c1cccc(Br)c1 | 14.3 | 46.2 | 7.24 | 32.4 | 27.6 | > 100 | 4.12 | 42.1 | 6.58 | 21.4 | 16.6 | 48.4 | 2.88 | 7.97 | 9.22 | 26.8 | 3.03 | 19.1 |  | 
2 | O=C(O)c1ccc(NC(=O)C2C(=O)C(=O)N(c3ccc(C(=O)O)cc3)C2=O)cc1 (stereo not given) |  |  |  | > 100 |  | > 100 |  | > 100 |  |  |  | > 100 |  | > 100 |  | > 100 |  |  | > 100 | 
3 | Cc1ccc(S(=O)(=O)N/N=C(\CCN2CCCC2)CC(c2ccccc2)c2c(O)c3ccccc3oc2=O)cc1 (stereo not given) |  |  |  | > 100 |  |  |  | > 100 |  | > 100 |  | > 100 |  | > 100 |  | > 100 |  |  | > 100 | 
4 | O=[N+]([O-])c1cnc(Sc2ccncn2)c([N+](=O)[O-])c1 | 19.2 | 57.2 | 20.9 | 55.1 | 3.24 | 33.1 | 2.78 | 11.2 | 14.3 | 28 | 23.1 | 62.9 |  |  | 16 | 30.7 | 16.7 | 30.5 | 32.9 | 16.8
5 | CC(=O)N(C)OC(=O)CC(=O)c1ccccc1 |  |  |  | > 100 |  | > 100 |  |  |  | > 100 |  | > 100 |  | > 100 |  | > 100 |  |  |  | 
6 | O=P(c1ccccc1)(c1ccccc1)C1CC=C(c2ccccc2)C2(CCCC2)C1 (stereo not given) |  |  |  | > 100 |  | 53.1 |  | > 100 |  | > 100 |  | 50.7 |  | > 100 |  | > 100 |  |  | > 100 | 
7 | CCCCCCCCCCCCCS(=O)(=O)O |  |  |  | > 100 |  |  |  | > 100 |  | > 100 |  | > 100 |  | > 100 |  | > 100 |  |  | > 100 | 
8 | CC(Cn1c2c3ccccc3ccc2c2oc(=O)c3ccccc3c21)N(C)C (stereo not given) |  |  |  | > 100 |  | > 100 |  | > 100 |  |  |  | > 100 |  | > 100 |  | > 100 |  |  | > 100 | 
9 | O=C(Nc1ccc(Cl)c(C(F)(F)F)c1)C(=O)C(C(=O)/C=C/c1ccccc1)C1OC(=O)c2ccccc21 (stereo not given) |  |  |  | > 100 |  | > 100 |  | > 100 |  |  |  | > 100 |  | > 100 |  | > 100 |  |  |  | 
10 | C/C(CN1C(=O)c2ccccc2C1=O)=N\NS(=O)(=O)c1cccc([N+](=O)[O-])c1 |  |  |  | > 100 |  | > 100 |  | > 100 |  | > 100 |  | > 100 |  | > 100 |  | > 100 |  |  | > 100 | 
11 | S=CN1CCCCC1 |  | > 100 |  | > 100 |  | > 100 |  | > 100 |  | > 100 |  | > 100 |  |  |  | > 100 |  | > 100 | > 100 | 
12 | O=C1C2C(C(=O)N1O)N(Cc1ccccc1)C(=O)N2Cc1ccccc1 (stereo not given) |  |  |  | > 100 |  | > 100 |  | > 100 |  | > 100 |  | > 100 |  | > 100 |  | > 100 |  |  |  | 
13 | CC(C)(C)[OH+][O-].[O-]c1ccc(Cl)cc1C=Nc1ccc(Cl)cc1[O-].[O]=[V] | 19.4 | 52.6 | 10.8 | 32 | 17.5 | > 100 | 21.8 | > 100 | 13 | 26.3 | 24.7 | > 100 |  |  | 23.7 | 69.3 | 16.5 | 54.2 | 28.2 | 11.5
14 | CC(C)C(C(=O)O)N(CC1(O)OCC(O)C(O)C1O)N=O (stereo not given) |  |  |  | > 100 |  | > 100 |  |  |  | > 100 |  | > 100 |  |  |  |  |  |  | > 100 | 
15 | CCNc1nnc(CSc2nc(-c3ccccc3)c(-c3ccccc3)[nH]2)s1 |  |  |  | 23.9 |  | 56.7 |  | 43.8 |  | 24.1 |  | 37 |  | > 100 |  | 39.3 |  |  | 41.9 | 
16 | O=C(Nc1ccc(S(=O)(=O)Nc2nccs2)cc1)c1cccnc1Nc1cccc(Cl)c1 | 19.5 | 67.5 | 10.3 | 22.9 | 12.5 | 88.9 | 13.5 | 27.5 | 11.3 | 23.5 | 24.8 | 78.9 | 16.3 | 69.3 | 12.8 | 31.5 | 15.2 | 30.6 |  | 
17 | Nc1ccccc1C#CC#Cc1ccccc1N |  |  | 8.46 | 36.2 | 16.3 | > 100 | 11.4 | 25.5 | 4.36 | 17.9 | 3.97 | > 100 | 23.7 | > 100 |  |  |  |  | 51.7 | 21.7
18 | Cc1ccc(NC(=O)c2[nH]c(=S)nc(N)c2-c2ccccc2C)cc1C |  |  |  | > 100 |  | > 100 |  | > 100 |  | > 100 |  |  |  |  |  | > 100 |  |  | > 100 | 
19 | CN/N=C(/Cc1occc(=O)c1O)C(=O)Nc1ccc(C)c(C)c1 |  |  |  | > 100 |  | > 100 |  | > 100 |  | > 100 |  | > 100 |  | > 100 |  | > 100 |  |  | > 100 | 
20 | CC(=O)N1CCC2(C=Nc3ccccc32)CC1 |  |  |  | > 100 |  | > 100 |  | > 100 |  | > 100 |  | > 100 |  | > 100 |  |  |  |  | > 100 | 
21 | CN(C)/[N+]([O-])=N/Oc1cc(Nc2cccc(C(=O)O)c2)c([N+](=O)[O-])cc1[N+](=O)[O-] | 34.7 | > 100 | 86.7 | > 100 | 61.4 | > 100 | > 100 | > 100 | 81.4 | > 100 | 52.2 | > 100 |  |  | 30 | 78.5 | > 100 | > 100 | > 100 | 36
